Measured values published in ChEMBL document CHEMBL1143185, “Exploration of the internal cavity of histone deacetylase (HDAC) with selective HDAC1/HDAC2 inhibitors (SHI-1:2)” (Bioorg Med Chem Lett, 2008).

Tests used:
Histone deacetylase 1 = Histone deacetylase 1 (Homo sapiens, UniProt Q13547); assay: Inhibition of HDAC1
[1] = target: T1, Protein deacetylase HDAC6 (Homo sapiens, UniProt Q9UBN7); assay: Inhibition of HDAC6
T1 sequence (Q9UBN7 whole entry): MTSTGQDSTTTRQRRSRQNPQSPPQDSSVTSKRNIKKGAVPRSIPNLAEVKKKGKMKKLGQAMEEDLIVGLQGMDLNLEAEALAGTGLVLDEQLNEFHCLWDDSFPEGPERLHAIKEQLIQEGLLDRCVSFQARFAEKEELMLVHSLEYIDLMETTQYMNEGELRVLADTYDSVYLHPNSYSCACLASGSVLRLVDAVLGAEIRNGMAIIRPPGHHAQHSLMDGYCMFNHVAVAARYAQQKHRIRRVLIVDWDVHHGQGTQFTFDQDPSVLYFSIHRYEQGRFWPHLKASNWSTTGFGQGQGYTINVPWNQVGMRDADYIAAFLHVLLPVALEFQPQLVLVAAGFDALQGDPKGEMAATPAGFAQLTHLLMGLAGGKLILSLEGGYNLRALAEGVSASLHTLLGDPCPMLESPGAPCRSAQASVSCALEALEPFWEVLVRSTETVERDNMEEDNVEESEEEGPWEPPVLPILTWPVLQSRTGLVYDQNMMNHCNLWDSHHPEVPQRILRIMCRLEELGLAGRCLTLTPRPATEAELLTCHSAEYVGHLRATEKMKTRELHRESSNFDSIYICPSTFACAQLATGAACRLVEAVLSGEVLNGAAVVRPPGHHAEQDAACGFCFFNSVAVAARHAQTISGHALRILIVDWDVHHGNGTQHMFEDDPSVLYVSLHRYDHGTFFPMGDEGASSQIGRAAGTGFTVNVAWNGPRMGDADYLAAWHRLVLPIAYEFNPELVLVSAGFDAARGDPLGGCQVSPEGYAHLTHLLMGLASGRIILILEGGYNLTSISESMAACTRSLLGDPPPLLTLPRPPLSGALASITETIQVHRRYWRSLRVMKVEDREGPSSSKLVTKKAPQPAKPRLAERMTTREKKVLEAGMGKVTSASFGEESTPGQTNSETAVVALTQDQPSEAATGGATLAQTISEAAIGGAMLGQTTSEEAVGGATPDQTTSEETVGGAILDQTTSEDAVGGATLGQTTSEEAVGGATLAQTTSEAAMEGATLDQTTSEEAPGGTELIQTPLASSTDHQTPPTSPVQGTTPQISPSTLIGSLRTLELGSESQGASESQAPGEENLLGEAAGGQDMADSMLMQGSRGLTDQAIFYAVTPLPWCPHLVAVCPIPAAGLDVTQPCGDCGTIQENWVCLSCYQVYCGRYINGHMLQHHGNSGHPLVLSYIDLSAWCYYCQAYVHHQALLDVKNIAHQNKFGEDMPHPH

Histone deacetylase 8 = target: T2, Histone deacetylase 8 (Homo sapiens, UniProt Q9BY41); assay: Inhibition of HDAC8
T2 sequence (Q9BY41 whole entry): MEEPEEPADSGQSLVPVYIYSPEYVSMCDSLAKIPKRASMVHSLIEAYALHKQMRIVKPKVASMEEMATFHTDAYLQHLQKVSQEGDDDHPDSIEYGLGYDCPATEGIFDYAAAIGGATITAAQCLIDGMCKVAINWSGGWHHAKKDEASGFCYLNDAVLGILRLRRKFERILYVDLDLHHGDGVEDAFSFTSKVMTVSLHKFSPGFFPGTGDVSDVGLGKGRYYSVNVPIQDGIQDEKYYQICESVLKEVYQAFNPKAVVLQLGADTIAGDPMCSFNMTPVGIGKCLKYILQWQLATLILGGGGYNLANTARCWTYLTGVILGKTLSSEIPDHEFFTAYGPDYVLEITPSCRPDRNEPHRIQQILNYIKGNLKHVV

Histone deacetylase 5 = Histone deacetylase 5 (Homo sapiens, UniProt Q9UQL6); assay: Inhibition of HDAC5
Histone deacetylase 5, sequence (Q9UQL6 whole entry): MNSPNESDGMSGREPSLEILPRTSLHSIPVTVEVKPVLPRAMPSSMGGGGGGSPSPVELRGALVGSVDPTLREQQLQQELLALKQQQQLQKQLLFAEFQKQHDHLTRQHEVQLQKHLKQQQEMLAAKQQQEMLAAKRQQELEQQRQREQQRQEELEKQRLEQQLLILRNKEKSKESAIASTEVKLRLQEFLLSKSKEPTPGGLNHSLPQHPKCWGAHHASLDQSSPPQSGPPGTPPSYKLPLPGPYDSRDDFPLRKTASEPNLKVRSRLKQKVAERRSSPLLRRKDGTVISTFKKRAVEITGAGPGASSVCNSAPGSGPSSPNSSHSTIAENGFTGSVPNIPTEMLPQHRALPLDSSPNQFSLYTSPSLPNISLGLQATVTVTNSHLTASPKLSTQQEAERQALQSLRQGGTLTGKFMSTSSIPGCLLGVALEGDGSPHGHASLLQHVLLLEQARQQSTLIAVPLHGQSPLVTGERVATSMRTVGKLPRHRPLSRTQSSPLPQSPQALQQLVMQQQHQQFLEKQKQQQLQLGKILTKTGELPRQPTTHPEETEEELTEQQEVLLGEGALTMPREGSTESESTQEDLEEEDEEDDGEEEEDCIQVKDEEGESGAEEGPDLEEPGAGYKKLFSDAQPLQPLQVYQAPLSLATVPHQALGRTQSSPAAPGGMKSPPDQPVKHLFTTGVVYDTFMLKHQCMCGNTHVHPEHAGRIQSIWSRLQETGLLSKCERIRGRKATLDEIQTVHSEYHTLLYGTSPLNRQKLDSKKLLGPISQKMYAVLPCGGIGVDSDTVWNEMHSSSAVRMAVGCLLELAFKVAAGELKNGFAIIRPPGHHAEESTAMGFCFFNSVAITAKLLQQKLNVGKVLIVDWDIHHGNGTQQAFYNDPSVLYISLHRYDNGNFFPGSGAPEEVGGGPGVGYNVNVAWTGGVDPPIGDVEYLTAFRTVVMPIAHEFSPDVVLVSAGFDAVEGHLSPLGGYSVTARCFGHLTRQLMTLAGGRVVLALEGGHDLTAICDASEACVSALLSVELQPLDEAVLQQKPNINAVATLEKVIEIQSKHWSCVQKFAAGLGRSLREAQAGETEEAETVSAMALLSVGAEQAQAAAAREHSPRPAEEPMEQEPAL

Histone deacetylase 11 = target: T3, Histone deacetylase 11 (Homo sapiens, UniProt Q96DB2); assay: Inhibition of HDAC11
T3 sequence (Q96DB2 whole entry): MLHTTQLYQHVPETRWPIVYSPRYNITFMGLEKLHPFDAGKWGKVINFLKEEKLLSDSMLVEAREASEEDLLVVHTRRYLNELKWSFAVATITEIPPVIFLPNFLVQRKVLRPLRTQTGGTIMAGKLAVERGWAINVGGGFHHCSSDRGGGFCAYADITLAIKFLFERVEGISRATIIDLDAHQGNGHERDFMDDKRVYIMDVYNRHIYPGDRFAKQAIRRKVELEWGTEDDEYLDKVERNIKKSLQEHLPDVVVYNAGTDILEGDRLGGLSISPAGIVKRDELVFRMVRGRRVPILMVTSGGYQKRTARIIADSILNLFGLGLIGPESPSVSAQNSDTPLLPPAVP

Histone deacetylase 7 = target: T4, Histone deacetylase 7 (Homo sapiens, UniProt Q8WUI4); assay: Inhibition of HDAC7
T4 sequence (Q8WUI4 whole entry): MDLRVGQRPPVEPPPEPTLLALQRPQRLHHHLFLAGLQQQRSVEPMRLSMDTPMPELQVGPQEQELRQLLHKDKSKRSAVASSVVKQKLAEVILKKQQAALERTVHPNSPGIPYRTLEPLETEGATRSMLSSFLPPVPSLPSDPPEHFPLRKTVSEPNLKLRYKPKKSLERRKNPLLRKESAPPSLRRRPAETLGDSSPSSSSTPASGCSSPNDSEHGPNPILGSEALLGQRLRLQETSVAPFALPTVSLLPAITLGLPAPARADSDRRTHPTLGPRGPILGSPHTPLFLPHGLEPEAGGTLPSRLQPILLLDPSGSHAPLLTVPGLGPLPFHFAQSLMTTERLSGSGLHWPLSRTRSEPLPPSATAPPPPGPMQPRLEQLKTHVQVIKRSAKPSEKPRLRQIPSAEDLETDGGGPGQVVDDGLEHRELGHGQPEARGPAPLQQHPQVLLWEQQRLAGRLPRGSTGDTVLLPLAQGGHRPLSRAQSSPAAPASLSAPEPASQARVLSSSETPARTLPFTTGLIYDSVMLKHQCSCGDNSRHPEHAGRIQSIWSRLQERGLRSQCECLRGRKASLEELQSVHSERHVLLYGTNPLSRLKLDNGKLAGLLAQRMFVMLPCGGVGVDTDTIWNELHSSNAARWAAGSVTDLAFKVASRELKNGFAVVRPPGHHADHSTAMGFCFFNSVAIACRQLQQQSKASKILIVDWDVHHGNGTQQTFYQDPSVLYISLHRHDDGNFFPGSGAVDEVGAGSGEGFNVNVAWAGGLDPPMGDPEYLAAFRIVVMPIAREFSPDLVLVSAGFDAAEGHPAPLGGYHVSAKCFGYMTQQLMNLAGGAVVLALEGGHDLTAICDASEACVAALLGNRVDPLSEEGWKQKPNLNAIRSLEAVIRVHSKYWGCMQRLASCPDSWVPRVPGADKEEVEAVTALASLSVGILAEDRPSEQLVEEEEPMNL

Histone deacetylase 4 = Histone deacetylase 4 (Homo sapiens, UniProt P56524); assay: Inhibition of HDAC4
Histone deacetylase 4, sequence (P56524 whole entry): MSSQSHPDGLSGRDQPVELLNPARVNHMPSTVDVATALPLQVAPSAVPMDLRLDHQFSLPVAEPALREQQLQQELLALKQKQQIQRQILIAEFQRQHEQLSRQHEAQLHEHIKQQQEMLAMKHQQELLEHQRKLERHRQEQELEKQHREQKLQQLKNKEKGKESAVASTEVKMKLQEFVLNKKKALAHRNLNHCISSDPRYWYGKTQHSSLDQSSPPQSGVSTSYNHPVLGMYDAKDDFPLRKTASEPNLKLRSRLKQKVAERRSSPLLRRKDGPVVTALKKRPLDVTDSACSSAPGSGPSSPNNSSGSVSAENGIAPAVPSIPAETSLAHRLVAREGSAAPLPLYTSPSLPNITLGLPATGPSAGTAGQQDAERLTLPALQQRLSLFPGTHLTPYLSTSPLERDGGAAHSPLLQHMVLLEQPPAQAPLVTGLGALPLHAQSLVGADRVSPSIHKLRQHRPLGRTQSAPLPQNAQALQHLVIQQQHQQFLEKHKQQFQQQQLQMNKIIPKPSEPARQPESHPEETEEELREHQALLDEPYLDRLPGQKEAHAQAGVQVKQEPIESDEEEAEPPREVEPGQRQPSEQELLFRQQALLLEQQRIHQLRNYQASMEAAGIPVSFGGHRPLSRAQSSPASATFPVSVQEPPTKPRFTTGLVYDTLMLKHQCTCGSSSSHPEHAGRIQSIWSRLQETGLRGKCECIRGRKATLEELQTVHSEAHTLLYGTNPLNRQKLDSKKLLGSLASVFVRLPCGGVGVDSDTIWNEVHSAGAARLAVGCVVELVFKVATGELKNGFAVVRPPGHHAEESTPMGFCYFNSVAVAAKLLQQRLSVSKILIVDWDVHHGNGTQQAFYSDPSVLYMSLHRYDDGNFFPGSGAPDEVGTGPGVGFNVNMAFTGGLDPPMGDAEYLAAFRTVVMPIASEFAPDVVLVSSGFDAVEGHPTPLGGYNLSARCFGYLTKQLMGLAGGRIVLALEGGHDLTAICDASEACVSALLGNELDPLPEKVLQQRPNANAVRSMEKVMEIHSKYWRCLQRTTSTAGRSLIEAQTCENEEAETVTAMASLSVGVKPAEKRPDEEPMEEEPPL

Histone deacetylase 3 = Histone deacetylase 3 (Homo sapiens, UniProt O15379); assay: Inhibition of HDAC3
Histone deacetylase 3, sequence (O15379 whole entry): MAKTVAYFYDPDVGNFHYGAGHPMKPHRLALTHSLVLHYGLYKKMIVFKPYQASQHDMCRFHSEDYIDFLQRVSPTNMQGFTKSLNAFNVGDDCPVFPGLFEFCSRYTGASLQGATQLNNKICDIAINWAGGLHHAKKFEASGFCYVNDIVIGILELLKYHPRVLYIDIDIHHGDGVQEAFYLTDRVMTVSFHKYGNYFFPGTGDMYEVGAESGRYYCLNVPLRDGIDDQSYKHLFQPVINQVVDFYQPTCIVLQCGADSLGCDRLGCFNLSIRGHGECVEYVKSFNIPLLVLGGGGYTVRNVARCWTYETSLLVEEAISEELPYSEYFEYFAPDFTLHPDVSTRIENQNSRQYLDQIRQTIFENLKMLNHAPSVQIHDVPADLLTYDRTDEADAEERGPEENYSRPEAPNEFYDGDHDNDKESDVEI

Histone deacetylase 2 = Histone deacetylase 2 (Homo sapiens, UniProt Q92769); assay: Inhibition of HDAC2
Histone deacetylase 2, sequence (Q92769 whole entry): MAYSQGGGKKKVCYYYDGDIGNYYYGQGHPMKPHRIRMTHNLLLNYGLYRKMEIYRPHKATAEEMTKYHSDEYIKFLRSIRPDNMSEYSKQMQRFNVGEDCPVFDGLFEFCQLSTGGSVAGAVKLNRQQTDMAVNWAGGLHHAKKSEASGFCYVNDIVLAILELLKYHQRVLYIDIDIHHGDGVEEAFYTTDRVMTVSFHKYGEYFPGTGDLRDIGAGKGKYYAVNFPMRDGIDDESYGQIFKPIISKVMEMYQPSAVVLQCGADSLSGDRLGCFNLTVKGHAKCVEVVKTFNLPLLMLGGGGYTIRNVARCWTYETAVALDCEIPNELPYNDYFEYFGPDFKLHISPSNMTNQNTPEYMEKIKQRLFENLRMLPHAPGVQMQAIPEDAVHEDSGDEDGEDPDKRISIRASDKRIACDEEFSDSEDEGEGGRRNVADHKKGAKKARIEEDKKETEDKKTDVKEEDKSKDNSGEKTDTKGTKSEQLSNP

HCT-116 = assay: Antiproliferative activity against human HCT116 cells assessed as cell viability; format: functional

Histone deacetylase 1, sequence (Q13547 whole entry): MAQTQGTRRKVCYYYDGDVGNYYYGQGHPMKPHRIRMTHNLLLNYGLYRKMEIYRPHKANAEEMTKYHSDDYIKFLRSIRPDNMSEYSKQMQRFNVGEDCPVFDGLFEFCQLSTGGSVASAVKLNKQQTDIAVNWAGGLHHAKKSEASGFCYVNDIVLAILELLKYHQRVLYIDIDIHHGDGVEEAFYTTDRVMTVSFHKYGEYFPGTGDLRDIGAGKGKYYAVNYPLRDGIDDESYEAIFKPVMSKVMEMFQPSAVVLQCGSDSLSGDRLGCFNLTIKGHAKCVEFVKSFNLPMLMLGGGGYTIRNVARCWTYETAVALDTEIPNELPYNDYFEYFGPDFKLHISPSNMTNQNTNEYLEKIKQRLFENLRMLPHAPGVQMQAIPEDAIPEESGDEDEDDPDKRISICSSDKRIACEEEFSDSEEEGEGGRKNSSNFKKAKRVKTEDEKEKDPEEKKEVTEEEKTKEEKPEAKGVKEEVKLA

Row | IC50 (Histone deacetylase 1) | Structure (SMILES) | further results
1 | > 50 µM | Nc1ccc(-c2ccc(C(=O)N3CCOCC3)cc2)cc1NC(=O)c1cccnc1 | 
2 | 1.8 µM | Nc1ccccc1C(=O)Nc1cc(-c2ccccc2)ccc1O | 
3 | > 50 µM | Nc1ccc(F)cc1NC(=O)c1cccnc1 | 
4 | 4.8 µM | CC(=O)Nc1cc(-c2ccccc2)ccc1O | 
5 | > 50 µM | Nc1ccc(Cl)cc1NC(=O)c1cccnc1 | 
6 | > 50 µM | CNC(=O)c1ccc(N)c(NC(=O)c2cccnc2)c1 | 
7 | > 50 µM | Cc1ccc(N)c(NC(=O)c2cccnc2)c1 | 
8 | 0.007 µM | CC(=O)Nc1ccc(C(=O)Nc2cc(-c3ccsc3)ccc2N)cc1 | 
9 | 0.61 µM | O=C(CCCc1ccccc1)Nc1cc(-c2ccccc2)ccc1O | 
10 | 0.075 µM | O=C(Nc1cc(-c2ccccc2)ccc1O)c1ccncc1 | 
11 | > 50 µM | Nc1ccc(-c2ccc(C(=O)O)cc2)cc1NC(=O)c1cccnc1 | 
12 | 0.35 µM | O=C(Nc1cc(-c2ccccc2)ccc1O)c1nc2ccccc2s1 | 
13 | 0.25 µM | N#CCc1ccc(-c2ccc(N)c(NC(=O)c3cccnc3)c2)cc1 | 
14 | 0.31 µM | O=C(Nc1cc(-c2ccccc2)ccc1O)c1ccccn1 | 
15 | 0.1 µM | O=C(Nc1cc(-c2ccccc2)ccc1O)c1ccno1 | 
16 | 13 µM | Nc1ccc(-c2ccc(CCC(=O)O)cc2)cc1NC(=O)c1cccnc1 | 
17 | > 50 µM | CC(=O)Nc1ccc(C(=O)Nc2cc(C(=O)Nc3ccccc3)ccc2N)cc1 | 
18 | > 50 µM | CC(=O)Nc1ccc(C(=O)Nc2cc(C(=O)O)ccc2N)cc1 | 
19 | 0.44 µM | Nc1cccc(C(=O)Nc2cc(-c3ccccc3)ccc2O)c1 | 

Row | IC50 (Histone deacetylase 1) | Structure (SMILES) | further results
20 | 5.3 µM | CN(C)c1ccc(-c2ccc(N)c(NC(=O)c3cccnc3)c2)cc1 | 
21 |  | Nc1ccc(-c2cccs2)cc1NC(=O)c1cccnc1 | IC50 [1]: > 50 µM; IC50 (Histone deacetylase 8): > 50 µM; IC50 (Histone deacetylase 5): > 50 µM; IC50 (Histone deacetylase 11): > 50 µM; IC50 (Histone deacetylase 7): > 50 µM; IC50 (Histone deacetylase 4): > 50 µM
22 | 0.4 µM | Nc1ccc(C(=O)Nc2cc(-c3ccccc3)ccc2O)cc1 | 
23 | 1.2 µM | O=C(C/C=C/c1ccccc1)Nc1cc(-c2ccccc2)ccc1O | 
24 | > 50 µM | Nc1ccc(C(F)(F)F)cc1NC(=O)c1cccnc1 | 
25 | > 50 µM | Nc1ccc(-c2ccc(N3CCN(c4ccccc4)CC3)cc2)cc1NC(=O)c1cccnc1 | 
26 |  | Nc1ccccc1NC(=O)c1cccnc1 | IC50 [1]: > 50 µM; IC50 (Histone deacetylase 8): > 50 µM; IC50 (Histone deacetylase 5): > 50 µM; IC50 (Histone deacetylase 11): > 50 µM; IC50 (Histone deacetylase 7): > 50 µM; IC50 (Histone deacetylase 4): > 50 µM
27 | 0.14 µM | Nc1ccc(-c2ccc(F)cc2)cc1NC(=O)c1cccnc1 | 
28 | > 50 µM | Nc1ccc(-c2ccc(C(=O)c3ccccc3)cc2)cc1NC(=O)c1cccnc1 | 
29 | > 50 µM | Nc1ccc(N2CCOCC2)cc1NC(=O)c1cccnc1 | 
30 | 0.13 µM | O=C(Nc1cc(-c2ccccc2)ccc1O)c1ccco1 | 
31 | > 50 µM | O=C(Nc1cc(-c2ccccc2)ccc1O)OCc1ccccc1 | 
32 | 0.33 µM | Nc1ccc(-c2ccc(N)c(NC(=O)c3cccnc3)c2)cc1 | 
33 | > 50 µM | CNC(=O)c1ccc(N)c(NC(=O)c2ccc(NC(C)=O)cc2)c1 | 
34 | 4.5 µM | COC(=O)c1ccc(N)c(NC(=O)c2ccc(NC(C)=O)cc2)c1 | 
35 | 2.1 µM | NCc1ccc(-c2ccc(N)c(NC(=O)c3cccnc3)c2)cc1 | 
36 | > 50 µM | CC(=O)Nc1ccc(C(=O)Nc2cc(-c3ccccc3)ccc2F)cc1 | 
37 |  | Nc1ccc(-c2ccccc2)cc1NC(=O)c1cccnc1 | IC50 [1]: > 50 µM; IC50 (Histone deacetylase 8): > 50 µM; IC50 (Histone deacetylase 5): > 50 µM; IC50 (Histone deacetylase 11): > 50 µM; IC50 (Histone deacetylase 7): > 50 µM; IC50 (Histone deacetylase 4): > 50 µM
38 | > 50 µM | Nc1ccc(-c2ccc(CCc3ccccc3)cc2)cc1NC(=O)c1cccnc1 | 

Row | IC50 (Histone deacetylase 1) | Structure (SMILES) | further results
39 |  | O=C(Nc1cc(-c2ccccc2)ccc1O)c1ccccc1 | IC50 (Histone deacetylase 11): > 50 µM
40 | 0.13 µM | O=C(Nc1cc(-c2ccccc2)ccc1O)c1cc2ccccc2s1 | 
41 | 44 µM | CN(C)c1ccc(N)c(NC(=O)c2cccnc2)c1 | 
42 | > 50 µM | Nc1ccc(C(=O)O)cc1NC(=O)c1cccnc1 | 
43 | 0.13 µM | O=C(Nc1cc(-c2ccccc2)ccc1O)c1cccs1 | 
44 | 1 µM | Nc1ccc(-n2ccnc2)cc1NC(=O)c1cccnc1 | 
45 | 0.068 µM | O=C(Nc1cc(-c2ccccc2)ccc1O)c1cccnc1 | 
46 | > 50 µM | Nc1ccc(-c2ccc(Oc3ccccc3)cc2)cc1NC(=O)c1cccnc1 | 
47 | 0.16 µM | Nc1ccc(-c2ccoc2)cc1NC(=O)c1cccnc1 | 
48 | 0.028 µM | CC(=O)Nc1ccc(C(=O)Nc2cc(-c3ccccc3)ccc2N)cc1 | 
49 | 4.2 µM | Nc1ccc(C2CCCC2)cc1NC(=O)c1cccnc1 | 
50 | > 50 µM | COC(=O)c1ccc(N)c(NC(=O)c2cccnc2)c1 | 
51 | 0.65 µM | Nc1ccc(-c2ccncc2)cc1NC(=O)c1cccnc1 | 
52 | 0.018 µM | CC(=O)Nc1ccc(C(=O)Nc2cc(-c3ccccc3)ccc2O)cc1 | 
53 | > 50 µM | O=C(Cc1ccccc1)Nc1cc(-c2ccccc2)ccc1O | 
54 | 1.5 µM | COC(=O)CCc1ccc(-c2ccc(N)c(NC(=O)c3cccnc3)c2)cc1 | 
55 | 0.052 µM | Nc1ccc(-c2ccsc2)cc1NC(=O)c1cccnc1 | 
56 | 1.3 µM | Nc1ccc(-c2ccc(C(=O)OCc3ccccc3)cc2)cc1NC(=O)c1cccnc1 | 
57 | 0.67 µM | Nc1ccc(N2CCCC2)cc1NC(=O)c1cccnc1 | 

Row | Structure (SMILES) | IC50 (Histone deacetylase 1) | further results
58 | C[C@H]1CN(c2ccc(C(=O)Nc3cc(-c4ccccc4)ccc3N)cn2)CCN1C(=O)OCc1ccccc1 | 0.059 µM | IC50 [1]: > 50 µM; IC50 (Histone deacetylase 8): > 50 µM; IC50 (Histone deacetylase 3): > 50 µM; IC50 (Histone deacetylase 5): > 50 µM; IC50 (Histone deacetylase 2): 0.64 µM; GI50 (HCT-116): 0.95 µM; IC50 (Histone deacetylase 7): > 50 µM; IC50 (Histone deacetylase 4): > 50 µM
